Data reported in US6599283B1, “Method of preventing reperfusion injury” (priority 2001, dated 2003).

Tests used:
[1] = system: AMI patients undergoing primary PTCA; experiment: Metabolic data: creatine kinase (CK) and CK-MB; type: in vivo, human; settings: mean ± SD
Method: (§1) Fifty four AMI patients undergoing primary PTCA were randomized to intracoronary adenosine or saline. The 2 groups were similar for age, sex, and infarct location. Patients referred for PTCA within 3 hours from the onset of AMI were considered for the study. Patients underwent diagnostic coronary angiography. If the culprit lesion was suitable for PTCA and presented with a TIMI flow from 0 to 2, the patient was included in the study and randomized after informed consent had been obtained. Patients presenting with TIMI 3 flow were diagnosed as having spontaneous reperfusion and were not included in the study.
After left and right coronary arteriography by the femoral approach, a temporary pacing wire was advanced into the right ventricle and connected with a pacemaker left on demand at 60 bpm. The obstruction of the infarct-related artery was crossed with a 0.014-in guidewire, and an over-the-wire balloon catheter was positioned at the level of the obstruction. The wire was pulled out, and diluted contrast was injected through the central lumen of the catheter to confirm positioning of the catheter tip downstream of the obstruction and to assess patency of the distal vessel. […] The guidewire was then readvanced into the distal vessel, and the balloon was deflated to initiate reperfusion of the ischemic territory. […]

[2] = system: AMI patients undergoing primary PTCA; experiment: Clinical events / clinical course in hospital after primary PTCA; type: in vivo, human
Method: as §1
(§2) After left and right coronary arteriography by the femoral approach, a temporary pacing wire was advanced into the right ventricle and connected with a pacemaker left on demand at 60 bpm. The obstruction of the infarct-related artery was crossed with a 0.014-in guidewire, and an over-the-wire balloon catheter was positioned at the level of the obstruction. The wire was pulled out, and diluted contrast was injected through the central lumen of the catheter to confirm positioning of the catheter tip downstream of the obstruction and to assess patency of the distal vessel. The balloon was inflated, and either adenosine (4 mg in 2 mL saline) or saline (2 mL) was hand-injected into the distal vascular bed in a random fashion. The rate of injection was such as to complete treatment in 1 minute. The guidewire was then readvanced into the distal vessel, and the balloon was deflated to initiate reperfusion of the ischemic territory. The dilatation procedure was completed according to standard technique. Stenting of the dilated coronary segment was performed only for suboptimal balloon results or flow-limiting dissections. […] The final angiogram was then obtained, and the patient was transferred to the intensive coronary care unit. If symptoms and/or ECG changes consistent with vessel reclosure occurred during this interval, coronary angiography was performed immediately, and therapeutic measures were applied. The dilation procedure was limited to the culprit lesion in all patients.
(§3) The primary end points of this study were feasibility and safety of intracoronary adenosine administration in the setting of primary PTCA and its effect on coronary blood flow. As secondary end points, indexes of myocardial damage, including left ventricular regional function, Q-wave MI, recurrence of angina, nonfatal MI, heart failure, and cardiac death were evaluated.
Physicians in charge of the patients in the intensive coronary care unit were informed of the angiographic results of the PTCA but were blinded to the intracoronary treatment administered during the procedure.

[3] = system: AMI patients undergoing primary PTCA; settings: in vivo
Method: as §1
After left and right coronary arteriography by the femoral approach, a temporary pacing wire was advanced into the right ventricle and connected with a pacemaker left on demand at 60 bpm. […] The guidewire was then readvanced into the distal vessel, and the balloon was deflated to initiate reperfusion of the ischemic territory. […]
as §3

[4] = system: infarct-related artery; experiment: Angiographic analysis (residual stenosis, TIMI flow, no-reflow) after primary PTCA; type: in vivo, human
Method: as §1
After left and right coronary arteriography by the femoral approach, a temporary pacing wire was advanced into the right ventricle and connected with a pacemaker left on demand at 60 bpm. The obstruction of the infarct-related artery was crossed with a 0.014-in guidewire, and an over-the-wire balloon catheter was positioned at the level of the obstruction. The wire was pulled out, and diluted contrast was injected through the central lumen of the catheter to confirm positioning of the catheter tip downstream of the obstruction and to assess patency of the distal vessel. The balloon was inflated, and either adenosine (4 mg in 2 mL saline) or saline (2 mL) was hand-injected into the distal vascular bed in a random fashion. The rate of injection was such as to complete treatment in 1 minute. The guidewire was then readvanced into the distal vessel, and the balloon was deflated to initiate reperfusion of the ischemic territory. The dilatation procedure was completed according to standard technique. Stenting of the dilated coronary segment was performed only for suboptimal balloon results or flow-limiting dissections. […]
The angiograms were reread as a single group, in chronological sequence, by observers who had not participated in the invasive procedure and were blinded to the treatment received. […] Diameter stenosis was measured by an automatic edge-detection system (Mipron, Kontron). […]

[5] = system: left ventricle; experiment: Left ventricular regional function by 2D echocardiography; type: in vivo, human; settings: echocardiogram after 1 week vs admission
Method: as §1, §2
Left ventricular function was evaluated by 2D echocardiography within 24 hours from admission and after 1 week. Echocardiography was performed with the patient lying supine with a 2.5-MHz transducer fitted to a dedicated system (Hewlett-Packard Sonos 1500). Images were recorded on S-VHS tapes and analyzed offline by 2 experienced observers blinded to the angiographic data. Four views were used: the parasternal long- and short-axis (at the level of the papillary muscle) and apical 2- and 4-chamber views. The left ventricle was divided into 16 segments. In each segment, wall motion was graded as normal, hypokinetic, akinetic, or dyskinetic. Segmental motion at admission was compared with segmental motion at 1 week to detect changes of regional function.

[6] = intracoronary adenosine 4 mg in 2 mL saline, n = 27

Nc1ncnc2c1ncn2[C@@H]1O[C@H](CO)[C@@H](O)[C@H]1O [Adenosine, adenosine]
Peak CK [1]: 1994±1782 U/L
Peak CK-MB [1]: 156±142 UAL
Length of hospital stay ([2]; hospital stay): 9.1 ± 0.8 days
Recurrent angina and/or ischemia ([2]; intracoronary adenosine 4 mg in 2 mL saline into distal vascular bed before balloon deflation, n = 27): 3(11) number (%) of patients
Cardiac death [2, 6]: 0(0) number (%) of patients
Cumulative clinical end points (recurrent angina and/or ischemia, non-fatal AMI, heart failure, cardiac death) [2, 6]: 5(18) number (%) of patients
Heart failure [2, 6]: 2(7) number (%) of patients
Nonfatal AMI [2, 6]: 0(0) number (%) of patients
Clinical diagnosis of heart failure ([2]; n = 27): Two
Composite end point of recurrent angina, nonfatal MI, heart failure, and cardiac death ([2]; n = 27): 5 patients
Deaths in hospital ([2]; n = 27): No deaths
Developed a Q-wave ML ([2]; n = 27): Sixteen
Recurrence of angina ([2]; n = 27): Three
Bradyarrhythmias or tachyarrhythmias associated with protocol [3]: No bradyarrhythmias or tachyarrhythmias
Residual diameter stenosis by quantitative coronary arteriography ([4]; after PTCA, mean ± SD): 27.8±9.5%
Flow in the infarct-related artery (TIMI grade) ([4]; at the end of the dilation procedure): TIMI 3 in all adenosine patients
No-reflow phenomenon (drop of ≧1 TIMI grades in final angiogram relative to post-PTCA angiogram) ([4]; final angiogram 30 minutes after dilation, n = 27): 1 patient
Regional wall motion unchanged [5]: 38 segments
Worsening of wall motion, share of segments [5]: 2%
Wall motion improved, share of initially dyssynergic segments ([5]; 114 dyssynergic segments): 64%
Worsening of wall motion ([5]; 114 dyssynergic segments): 3 segments
Wall motion improved, initially dyssynergic segments ([5]; 114 dyssynergic segments, 23 patients): 73 segments
